Tested on: carbapenem resistant Enterobacteriaceae (CRE)
Assay: MIC of cefiderocol with Compound 1 vs approved BL/BLI combinations, 120 CRE isolates
Settings: IDM
Experimental: A panel of 30 strains of characterized Enterobacteriaceae isolates produce Ambler class A, B, C, and D β-lactamase were used. […] IDM was prepared by adding 100 g of chelex (a chelating agent) to 1 L of sterile CAMBH and stirring for 2 hours. The chelex treated media was then filtered using a 0.2 μm filter and divalent Ca, Mg, and Zn are added back at relevant concentrations. The pH was adjusted to 7.2 using HCl and the media was filtered again to ensure sterility. This created a medium that was devoid of iron but retains appropriate concentration of other cations and was necessary for evaluating the activity of cefiderocol originating from its uptake by bacterial iron transporters. Bacteria strains were grown for 3-5 hours in CAMHB and IDM. Cefiderocol was added either to a microtiter plate in 2-fold serial dilutions in CAMHB and in parallel in IDM. […] Once the test articles were added the plates were inoculated according to CLSI broth microdilution method.
The challenge set of organisms consisted of a variety of Enterobacteriaceae species expressing IMP (n=30), NDM (30), VIM (15), KPC (n=30), and AmpC (n=15).

CC(C)(O/N=C(\C(=O)N[C@@H]1C(=O)N2C(C(=O)[O-])=C(C[N+]3(CCNC(=O)c4ccc(O)c(O)c4Cl)CCCC3)CS[C@H]12)c1csc(N)n1)C(=O)O [FDC, cefiderocol] gave an MIC (Klebsiella aerogenes, Enterobacter aerogenes CDC-0161 (IMP-4, TEM-1B, OXA-1, SFO-1)) of 2 µg/mL, an MIC (Klebsiella aerogenes, Enterobacter aerogenes IHMA 846505 (CMY-2, IMP)) of 0.5 µg/mL and an MIC (Klebsiella aerogenes, Enterobacter aerogenes IHMA 890184 (IMP)) of 0.059 µg/mL. It also gave an MIC (Klebsiella oxytoca, Klebsiella oxytoca 847537 (KPC-2)) of 1 µg/mL, an MIC (Klebsiella oxytoca, Klebsiella oxytoca 847539 (CTX-M-2, KPC)) of 1 µg/mL and an MIC (Klebsiella oxytoca, Klebsiella oxytoca 1274060 (IMP-4)) of 0.059 µg/mL. For the same compound, the MIC (Klebsiella oxytoca, Klebsiella oxytoca 1417076 (IMP-8)) was 4 µg/mL, the MIC (Klebsiella oxytoca, Klebsiella oxytoca 1417077 (IMP-8)) was 4 µg/mL and the MIC (Klebsiella oxytoca, Klebsiella oxytoca 1585615 (IMP-4)) was 0.25 µg/mL. The MIC (Klebsiella oxytoca, Klebsiella oxytoca 1622674 (VIM-44)) was 1 µg/mL, the MIC (Klebsiella oxytoca, Klebsiella oxytoca IHMA 871515 (IMP, KPC-2, SHV-12)) was 1 µg/mL and the MIC (Klebsiella oxytoca, Klebsiella oxytoca IHMA 871516 (IMP, KPC-2, SHV-12)) was 0.059 µg/mL. For the same compound, the MIC (Klebsiella oxytoca, Klebsiella oxytoca IHMA 871518 (IMP, KPC-2, SHV-12)) was 1 µg/mL, the MIC (Klebsiella pneumoniae, Klebsiella pneumoniae 845661 (KPC-3)) was 1 µg/mL and the MIC (Klebsiella pneumoniae, Klebsiella pneumoniae 845662 (KPC-3)) was 4 µg/mL. The MIC (Klebsiella pneumoniae, Klebsiella pneumoniae 845665 (KPC-3)) was 1 µg/mL, the MIC (Klebsiella pneumoniae, Klebsiella pneumoniae 845667 (KPC-3)) was 1 µg/mL and the MIC (Klebsiella pneumoniae, Klebsiella pneumoniae 845670 (KPC-3)) was 0.25 µg/mL. The MIC (Klebsiella pneumoniae, Klebsiella pneumoniae 845904 (KPC-3)) was 2 µg/mL, the MIC (Klebsiella pneumoniae, Klebsiella pneumoniae 847204 (KPC-2)) was 0.5 µg/mL and the MIC (Klebsiella pneumoniae, Klebsiella pneumoniae 847375 (SHV-12, KPC-2)) was 1 µg/mL. The MIC (Klebsiella pneumoniae, Klebsiella pneumoniae 847378 (SHV-12, KPC-2)) was 4 µg/mL, the MIC (Klebsiella pneumoniae, Klebsiella pneumoniae 847379 (CTX-M-2, KPC-2)) was 0.125 µg/mL and the MIC (Klebsiella pneumoniae, Klebsiella pneumoniae 847383 (KPC-2)) was 2 µg/mL. For the same compound, the MIC (Klebsiella pneumoniae, Klebsiella pneumoniae 847384 (SHV-12, KPC-2)) was 1 µg/mL, the MIC (Klebsiella pneumoniae, Klebsiella pneumoniae 847387 (SHV-12, KPC-2)) was 2 µg/mL and the MIC (Klebsiella pneumoniae, Klebsiella pneumoniae 847747 (CTX-M-2, KPC)) was 0.5 µg/mL. The MIC (Klebsiella pneumoniae, Klebsiella pneumoniae 848561 (SHV-11, CTX-M-3, KPC)) was 2 µg/mL, the MIC (Klebsiella pneumoniae, Klebsiella pneumoniae 848562 (SHV-11, KPC-3)) was 1 µg/mL and the MIC (Klebsiella pneumoniae, Klebsiella pneumoniae 848563 (KPC-3)) was 0.5 µg/mL. For the same compound, the MIC (Klebsiella pneumoniae, Klebsiella pneumoniae 848566 (SHV-11, KPC-3)) was 1 µg/mL, the MIC (Klebsiella pneumoniae, Klebsiella pneumoniae 848600 (KPC-3)) was 1 µg/mL and the MIC (Klebsiella pneumoniae, Klebsiella pneumoniae 848788 (KPC-2)) was 0.5 µg/mL. For the same compound, the MIC (Klebsiella pneumoniae, Klebsiella pneumoniae 848790 (KPC-2)) was 2 µg/mL, the MIC (Klebsiella pneumoniae, Klebsiella pneumoniae 848791 (SHV-12, KPC-2)) was 4 µg/mL and the MIC (Klebsiella pneumoniae, Klebsiella pneumoniae 848828 (SHV-12, KPC-2)) was 4 µg/mL. It also gave an MIC (Klebsiella pneumoniae, Klebsiella pneumoniae 848832 (KPC-2)) of 0.5 µg/mL, an MIC (Klebsiella pneumoniae, Klebsiella pneumoniae 848842 (SHV-2A, KPC-2)) of 1 µg/mL and an MIC (Klebsiella pneumoniae, Klebsiella pneumoniae 848844 (SHV-11, KPC-2)) of 4 µg/mL. It also gave an MIC (Klebsiella pneumoniae, Klebsiella pneumoniae 890066 (SHV-33; TEM-33; CTX-M-15; IMP-1)) of 0.5 µg/mL, an MIC (Klebsiella pneumoniae, Klebsiella pneumoniae 1212142 (NDM-6)) of 4 µg/mL and an MIC (Klebsiella pneumoniae, Klebsiella pneumoniae 1212258 (NDM-6)) of 4 µg/mL. The MIC (Klebsiella pneumoniae, Klebsiella pneumoniae 1212290 (NDM-6)) was 4 µg/mL, the MIC (Klebsiella pneumoniae, Klebsiella pneumoniae 1212347 (NDM-6)) was 4 µg/mL and the MIC (Klebsiella pneumoniae, Klebsiella pneumoniae 1212352 (NDM-6)) was 1 µg/mL. The MIC (Klebsiella pneumoniae, Klebsiella pneumoniae 1251598 (VIM-26)) was 0.5 µg/mL, the MIC (Klebsiella pneumoniae, Klebsiella pneumoniae 1251599 (VIM-26)) was 0.5 µg/mL and the MIC (Klebsiella pneumoniae, Klebsiella pneumoniae 1251600 (VIM-26)) was 0.25 µg/mL. For the same compound, the MIC (Klebsiella pneumoniae, Klebsiella pneumoniae 1251604 (VIM-26)) was 0.25 µg/mL, the MIC (Klebsiella pneumoniae, Klebsiella pneumoniae 1277372 (NDM-7)) was 2 µg/mL and the MIC (Klebsiella pneumoniae, Klebsiella pneumoniae 1277416 (IMP-26)) was 0.5 µg/mL. For the same compound, the MIC (Klebsiella pneumoniae, Klebsiella pneumoniae 1286102 (NDM-7)) was 4 µg/mL, the MIC (Klebsiella pneumoniae, Klebsiella pneumoniae 1286206 (NDM-7)) was 4 µg/mL and the MIC (Klebsiella pneumoniae, Klebsiella pneumoniae 1369220 (NDM-6)) was 8 µg/mL. The MIC (Klebsiella pneumoniae, Klebsiella pneumoniae 1369251 (NDM-6)) was 16 µg/mL, the MIC (Klebsiella pneumoniae, Klebsiella pneumoniae 1369306 (NDM-6)) was 8 µg/mL and the MIC (Klebsiella pneumoniae, Klebsiella pneumoniae 1371650 (NDM-6)) was 4 µg/mL. It also gave an MIC (Klebsiella pneumoniae, Klebsiella pneumoniae 1371730 (NDM-6)) of 1 µg/mL, an MIC (Klebsiella pneumoniae, Klebsiella pneumoniae 1379123 (NDM-4)) of 4 µg/mL and an MIC (Klebsiella pneumoniae, Klebsiella pneumoniae 1385577 (NDM-4)) of 8 µg/mL. It also gave an MIC (Klebsiella pneumoniae, Klebsiella pneumoniae 1385586 (NDM-4)) of 4 µg/mL, an MIC (Klebsiella pneumoniae, Klebsiella pneumoniae 1385622 (NDM-4)) of 2 µg/mL and an MIC (Klebsiella pneumoniae, Klebsiella pneumoniae 1420892 (IMP-4)) of 2 µg/mL. It also gave an MIC (Klebsiella pneumoniae, Klebsiella pneumoniae 1455463 (NDM-4)) of 8 µg/mL, an MIC (Klebsiella pneumoniae, Klebsiella pneumoniae 1455545 (NDM-4)) of 0.5 µg/mL and an MIC (Klebsiella pneumoniae, Klebsiella pneumoniae 1459396 (NDM-7)) of 1 µg/mL. It also gave an MIC (Klebsiella pneumoniae, Klebsiella pneumoniae 1459398 (NDM-7)) of 8 µg/mL, an MIC (Klebsiella pneumoniae, Klebsiella pneumoniae 1591688 (IMP-4)) of 1 µg/mL and an MIC (Klebsiella pneumoniae, Klebsiella pneumoniae 1591702 (IMP-4)) of 1 µg/mL. For the same compound, the MIC (Klebsiella pneumoniae, Klebsiella pneumoniae 1607267 (IMP-4)) was 4 µg/mL, the MIC (Klebsiella pneumoniae, Klebsiella pneumoniae 1610707 (VIM-24)) was 0.25 µg/mL and the MIC (Klebsiella pneumoniae, Klebsiella pneumoniae 1621162 (VIM-12)) was 0.5 µg/mL. The MIC (Klebsiella pneumoniae, Klebsiella pneumoniae CDC-0034 (IMP-4, TEM-1B, SHV-11)) was 0.25 µg/mL, the MIC (Klebsiella pneumoniae, Klebsiella pneumoniae CDC-0080 (IMP-4, TEM-1B, OKP-B-2, OXA-1, SFO-1)) was 0.5 µg/mL and the MIC (Klebsiella pneumoniae, Klebsiella pneumoniae IHMA 469384 (IMP-26, SHV-12)) was 0.059 µg/mL. The MIC (Klebsiella pneumoniae, Klebsiella pneumoniae IHMA 511121 (IMP-26)) was 1 µg/mL, the MIC (Klebsiella pneumoniae, Klebsiella pneumoniae IHMA 511128 (IMP-26)) was 2 µg/mL and the MIC (Klebsiella pneumoniae, Klebsiella pneumoniae IHMA 511163 (IMP-26)) was 4 µg/mL. It also gave an MIC (Klebsiella pneumoniae, Klebsiella pneumoniae IHMA 600482 (CTX-M-15, IMP-26)) of 2 µg/mL and an MIC (Klebsiella pneumoniae, Klebsiella pneumoniae SI-128 (IMP-5)) of 2 µg/mL.
